“And” between values parts separate entries of the source, which are not always exact repeats. Equal values may be shown once.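 In this assay, cells in 96-well plates receive the compound at five concentrations for 48 hours. Endpoints are linearly interpolated between the surrounding concentrations. GI50 = concentration required for 50% inhibition of growth. TGI marks complete inhibition of growth.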
Key:
Assay in all cases: NCI tumour cell line growth inhibition, 48 h
[1] = test system: DMS 273 small cell lung
[2] = test system: IGROV1 ovarian
[3] = test system: SNB-75 CNS
[4] = test system: RPMI-8226 leukemia
[5] = test system: CAKI-1 renal
[6] = test system: K-562 leukemia
[7] = test system: HCT-116 colon
[8] = test system: SN12K1 renal
[9] = test system: CCRF-CEM leukemia
[10] = test system: NCI-H460 lung
[11] = test system: P388 leukemia
[12] = test system: MOLT-4 leukemia
[13] = test system: HT29 colon
[14] = test system: SK-MEL-2 melanoma
[15] = test system: HS 578T breast
[16] = test system: SK-MEL-28 melanoma

In the case of `O=CC(NC(=O)N(CCCl)N=O)C(O)C(O)C(O)CO` (stereo not given), the GI50 [1] was 218 µM and > 1250 µM, the TGI [1] was 625 µM and > 1250 µM and > 1210 µM and the GI50 [2] was 460 µM and > 1250 µM. The TGI [2] was 625 µM and > 1250 µM, the GI50 [3] was 146 µM and the TGI [3] was 625 µM and 1050 µM. For the same molecule, the GI50 [4] was 497 µM and > 1250 µM, the TGI [4] was 625 µM and > 1250 µM and the GI50 [5] was 269 µM. The TGI [5] was 625 µM and > 1250 µM, the GI50 [6] was > 198 µM and 1040 µM and the TGI [6] was > 1250 µM. For the same molecule, the GI50 [7] was 302 µM and 1030 µM and 467 µM, the TGI [7] was 625 µM and > 1250 µM and > 992 µM and the GI50 [8] was 133 µM and 290 µM. The TGI [8] was 625 µM and > 1250 µM, the GI50 [9] was 207 µM and 515 µM and the TGI [9] was 625 µM and > 1250 µM. The GI50 [10] was 208 µM and 401 µM, the TGI [10] was 625 µM and > 1250 µM and > 1210 µM and the TGI [11] was > 1250 µM. The GI50 [12] was 104 µM, the TGI [12] was 625 µM and > 1060 µM and the GI50 [13] was > 625 µM. The TGI [13] was > 1250 µM, the GI50 [14] was > 625 µM and the TGI [14] was > 1250 µM. For the same molecule, the TGI [15] was > 1250 µM, the GI50 [16] was > 1250 µM and the TGI [16] was > 1250 µM.
